# Results published in PubChem BioAssay AID2060625 (Molecular Pharmacology Branch, DTP, NCI, 2025).
# Test system: 186277-243-T-J2-PDC spheroids with HUVEC/MSC, viability
# Experiment: Anticancer human tumor 186277-243-T-J2-PDC patient-derived colon adenocarcinoma cell line growth inhibition [CLK]
# Conditions: second compound 0.1 µM; first compound 1 µM; hits give low values
# Procedure, shortened: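 Multi-cell-type spheroids combined patient-derived tumor cells with HUVEC endothelial cells and human mesenchymal stem cells. Paired agents were dosed in half-log steps down from about clinical Cmax, or from 10 microM where Cmax was unknown.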
# 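Also: compound exposure lasted seven days before readout; 100% = DMSO vehicle control wells.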
row,Compound,"viability, T/C [%]"
1,O=C(c1cc(Cc2n[nH]c(=O)c3ccccc23)ccc1F)N1CCN(C(=O)C2CC2)CC1 + CNC(=O)c1ccc(Nc2nc(OC3CCCC3)c3c(-c4ccc5nc(C)oc5c4)c[nH]c3n2)c(OC)c1,81.2
2,COC1C=CCC(C)C(C)S(=O)(=O)NC(=O)c2ccc3c(c2)N(CC2CCC21)CC1(CCCc2cc(Cl)ccc21)CO3 (configuration not stated) + CN1CCN(c2cc(C(=O)Nc3cc4cc(-c5cnn(C)c5)ccc4cn3)ccn2)CC1,54.3
3,C#Cc1c(F)ccc2cc(O)cc(-c3ncc4c(N5CC6CCC(C5)N6)nc(OCC56CCCN5CC(F)C6)nc4c3F)c12 (configuration not stated) + CNC(=O)c1ccc(Nc2nc(OC3CCCC3)c3c(-c4ccc5nc(C)oc5c4)c[nH]c3n2)c(OC)c1,10.1
4,C=C(F)C(=O)N1CCN(c2nc(OCC3CCCN3C)nc3c2CCN(c2cccc4cccc(Cl)c24)C3)CC1CC#N (configuration not stated) + CN1CCN(c2cc(C(=O)Nc3cc4cc(-c5cnn(C)c5)ccc4cn3)ccn2)CC1,95.8

# Same assay, conditions: second compound 0.1 µM; first compound 3.16 µM; hits give low values
row,Compound,"viability, T/C [%]"
1,O=C(c1cc(Cc2n[nH]c(=O)c3ccccc23)ccc1F)N1CCN(C(=O)C2CC2)CC1 + CNC(=O)c1ccc(Nc2nc(OC3CCCC3)c3c(-c4ccc5nc(C)oc5c4)c[nH]c3n2)c(OC)c1,83.1
2,COC1C=CCC(C)C(C)S(=O)(=O)NC(=O)c2ccc3c(c2)N(CC2CCC21)CC1(CCCc2cc(Cl)ccc21)CO3 (configuration not stated) + CN1CCN(c2cc(C(=O)Nc3cc4cc(-c5cnn(C)c5)ccc4cn3)ccn2)CC1,21.4
3,C#Cc1c(F)ccc2cc(O)cc(-c3ncc4c(N5CC6CCC(C5)N6)nc(OCC56CCCN5CC(F)C6)nc4c3F)c12 (configuration not stated) + CNC(=O)c1ccc(Nc2nc(OC3CCCC3)c3c(-c4ccc5nc(C)oc5c4)c[nH]c3n2)c(OC)c1,9.23
4,C=C(F)C(=O)N1CCN(c2nc(OCC3CCCN3C)nc3c2CCN(c2cccc4cccc(Cl)c24)C3)CC1CC#N (configuration not stated) + CN1CCN(c2cc(C(=O)Nc3cc4cc(-c5cnn(C)c5)ccc4cn3)ccn2)CC1,83.5

# Same assay, conditions: second compound 0.1 µM; first compound 10 µM; hits give low values
row,Compound,"viability, T/C [%]"
1,O=C(c1cc(Cc2n[nH]c(=O)c3ccccc23)ccc1F)N1CCN(C(=O)C2CC2)CC1 + CNC(=O)c1ccc(Nc2nc(OC3CCCC3)c3c(-c4ccc5nc(C)oc5c4)c[nH]c3n2)c(OC)c1,84.1
2,COC1C=CCC(C)C(C)S(=O)(=O)NC(=O)c2ccc3c(c2)N(CC2CCC21)CC1(CCCc2cc(Cl)ccc21)CO3 (configuration not stated) + CN1CCN(c2cc(C(=O)Nc3cc4cc(-c5cnn(C)c5)ccc4cn3)ccn2)CC1,2.36
3,C#Cc1c(F)ccc2cc(O)cc(-c3ncc4c(N5CC6CCC(C5)N6)nc(OCC56CCCN5CC(F)C6)nc4c3F)c12 (configuration not stated) + CNC(=O)c1ccc(Nc2nc(OC3CCCC3)c3c(-c4ccc5nc(C)oc5c4)c[nH]c3n2)c(OC)c1,7.22
4,C=C(F)C(=O)N1CCN(c2nc(OCC3CCCN3C)nc3c2CCN(c2cccc4cccc(Cl)c24)C3)CC1CC#N (configuration not stated) + CN1CCN(c2cc(C(=O)Nc3cc4cc(-c5cnn(C)c5)ccc4cn3)ccn2)CC1,1.11

# Same assay, conditions: second compound 0.316 µM; first compound 0.00316 µM; hits give low values
row,Compound,"viability, T/C [%]"
1,COc1c(OCCCN2CCOCC2)ccc2c3n(c(=NC(=O)c4cnc(N)nc4)nc12)CCN3 + CNC(=O)c1ccc(Nc2nc(OC3CCCC3)c3c(-c4ccc5nc(C)oc5c4)c[nH]c3n2)c(OC)c1,29.3

# Same assay, conditions: second compound 0.316 µM; first compound 0.01 µM; hits give low values
row,Compound,"viability, T/C [%]"
1,COc1c(OCCCN2CCOCC2)ccc2c3n(c(=NC(=O)c4cnc(N)nc4)nc12)CCN3 + CNC(=O)c1ccc(Nc2nc(OC3CCCC3)c3c(-c4ccc5nc(C)oc5c4)c[nH]c3n2)c(OC)c1,22.8

# Same assay, conditions: second compound 0.316 µM; first compound 0.0316 µM; hits give low values
row,Compound,"viability, T/C [%]"
1,COc1c(OCCCN2CCOCC2)ccc2c3n(c(=NC(=O)c4cnc(N)nc4)nc12)CCN3 + CNC(=O)c1ccc(Nc2nc(OC3CCCC3)c3c(-c4ccc5nc(C)oc5c4)c[nH]c3n2)c(OC)c1,12.3
2,O=C(c1cc(Cc2n[nH]c(=O)c3ccccc23)ccc1F)N1CCN(C(=O)C2CC2)CC1 + CNC(=O)c1ccc(Nc2nc(OC3CCCC3)c3c(-c4ccc5nc(C)oc5c4)c[nH]c3n2)c(OC)c1,55.8
3,COC1C=CCC(C)C(C)S(=O)(=O)NC(=O)c2ccc3c(c2)N(CC2CCC21)CC1(CCCc2cc(Cl)ccc21)CO3 (configuration not stated) + CN1CCN(c2cc(C(=O)Nc3cc4cc(-c5cnn(C)c5)ccc4cn3)ccn2)CC1,25.6
4,C#Cc1c(F)ccc2cc(O)cc(-c3ncc4c(N5CC6CCC(C5)N6)nc(OCC56CCCN5CC(F)C6)nc4c3F)c12 (configuration not stated) + CNC(=O)c1ccc(Nc2nc(OC3CCCC3)c3c(-c4ccc5nc(C)oc5c4)c[nH]c3n2)c(OC)c1,16.6
5,C=C(F)C(=O)N1CCN(c2nc(OCC3CCCN3C)nc3c2CCN(c2cccc4cccc(Cl)c24)C3)CC1CC#N (configuration not stated) + CN1CCN(c2cc(C(=O)Nc3cc4cc(-c5cnn(C)c5)ccc4cn3)ccn2)CC1,25.1

# Same assay, conditions: second compound 0.316 µM; first compound 0.1 µM; hits give low values
row,Compound,"viability, T/C [%]"
1,COc1c(OCCCN2CCOCC2)ccc2c3n(c(=NC(=O)c4cnc(N)nc4)nc12)CCN3 + CNC(=O)c1ccc(Nc2nc(OC3CCCC3)c3c(-c4ccc5nc(C)oc5c4)c[nH]c3n2)c(OC)c1,6.69
2,O=C(c1cc(Cc2n[nH]c(=O)c3ccccc23)ccc1F)N1CCN(C(=O)C2CC2)CC1 + CNC(=O)c1ccc(Nc2nc(OC3CCCC3)c3c(-c4ccc5nc(C)oc5c4)c[nH]c3n2)c(OC)c1,52.3
3,COC1C=CCC(C)C(C)S(=O)(=O)NC(=O)c2ccc3c(c2)N(CC2CCC21)CC1(CCCc2cc(Cl)ccc21)CO3 (configuration not stated) + CN1CCN(c2cc(C(=O)Nc3cc4cc(-c5cnn(C)c5)ccc4cn3)ccn2)CC1,30.4
4,C#Cc1c(F)ccc2cc(O)cc(-c3ncc4c(N5CC6CCC(C5)N6)nc(OCC56CCCN5CC(F)C6)nc4c3F)c12 (configuration not stated) + CNC(=O)c1ccc(Nc2nc(OC3CCCC3)c3c(-c4ccc5nc(C)oc5c4)c[nH]c3n2)c(OC)c1,10.6
5,C=C(F)C(=O)N1CCN(c2nc(OCC3CCCN3C)nc3c2CCN(c2cccc4cccc(Cl)c24)C3)CC1CC#N (configuration not stated) + CN1CCN(c2cc(C(=O)Nc3cc4cc(-c5cnn(C)c5)ccc4cn3)ccn2)CC1,27.1

# Same assay, conditions: second compound 0.316 µM; first compound 0.316 µM; hits give low values
row,Compound,"viability, T/C [%]"
1,COc1c(OCCCN2CCOCC2)ccc2c3n(c(=NC(=O)c4cnc(N)nc4)nc12)CCN3 + CNC(=O)c1ccc(Nc2nc(OC3CCCC3)c3c(-c4ccc5nc(C)oc5c4)c[nH]c3n2)c(OC)c1,6.54
2,O=C(c1cc(Cc2n[nH]c(=O)c3ccccc23)ccc1F)N1CCN(C(=O)C2CC2)CC1 + CNC(=O)c1ccc(Nc2nc(OC3CCCC3)c3c(-c4ccc5nc(C)oc5c4)c[nH]c3n2)c(OC)c1,55.4
3,COC1C=CCC(C)C(C)S(=O)(=O)NC(=O)c2ccc3c(c2)N(CC2CCC21)CC1(CCCc2cc(Cl)ccc21)CO3 (configuration not stated) + CN1CCN(c2cc(C(=O)Nc3cc4cc(-c5cnn(C)c5)ccc4cn3)ccn2)CC1,16.9
